In brackets after ≈: the same amount, converted by molar mass.
Legend:
VZV strain Ellen = assay: VZV Antiviral (ELISA) assay; assay type: cell-based; conditions: for IC50: Human alphaherpesvirus 3, VZV strain Ellen in HFF cells, read-out: IC50 (ug/ml) VZV; for inhibition at 10 µg/mL: Human alphaherpesvirus 3, read-out: % inhibition 10 ug/ml VZV, at 10 ug/ml, VZV strain Ellen in HFF cells; for IC50 (ug/ml) VZV / % inhibition 10 ug/ml VZV: VZV strain Ellen in HFF cells; for % inhibition 10 ug/ml VZV: at 10 ug/ml
Procedure, shortened: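 Cell-based VZV (Ellen) spread assay in HFF, 3-day compound exposure in 2% FBS medium. Viral antigen quantified by fluorescent β-galactosidase ELISA; IC50 from inhibition of signal.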

[1] = test system: HCMV recombinant mutant virus (RV145); assay: HCMV microtiter plate assay (beta-glucuronidase reporter); assay type: cell-based, Human Cytomegalovirus; conditions: for IC50: Human betaherpesvirus 5, Fibroblast, read-out: IC50 (ug/ml) HCMV; for IC50 (ug/ml) HCMV: HCMV in human foreskin fibroblasts
Procedure, shortened: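 Human foreskin fibroblasts were infected with RV145 in the presence of inhibitor. β-glucuronidase under a viral promoter served as the replication marker. At 96 h post-infection, lysates in pH 7.0 phosphate with Triton X-100/sarkosyl were assayed colorimetrically or fluorometrically, and IC50 was estimated from varying inhibitor amounts.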

HSV-1 = assay: HSV Antiviral (ELISA) assay; assay type: cell-based; conditions: for IC50: Human alphaherpesvirus 1, HSV-1 in Vero cells, read-out: IC50 (ug/ml) HSV; for IC50 (ug/ml) HSV: HSV-1 in Vero cells
Procedure, shortened: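 Vero cells in DMEM/2% FBS pretreated with compound 30 min before HSV-1 infection (MOI 0.006), then ~24 h at 37 °C. Viral gD detected by ELISA with β-galactosidase secondary and 4-methylumbelliferyl-galactoside (ex 365/em 450 nm); IC50 from fluorescence versus untreated infected cells.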

Structure (SMILES) | IC50 (VZV strain Ellen) [µg/mL] | inhibition at 10 µg/mL (VZV strain Ellen) [%] | IC50 [1] [µg/mL] | IC50 (HSV-1) [µg/mL] | IC50 (ug/ml) VZV (VZV strain Ellen) [µg/mL] | IC50 (ug/ml) HCMV [1] [µg/mL] | IC50 (ug/ml) HSV (HSV-1) [µg/mL] | % inhibition 10 ug/ml VZV (VZV strain Ellen) [%]
O=C(Nc1ccc(NC(=S)Nc2cccc([N+](=O)[O-])c2)cc1)c1ccco1 [Example 1008, Furan-2-carboxylic acid {4-[3-(3-nitro-phenyl)-thioureido]-phenyl} -amide] | > 10 | 15 | 0.12 (≈ 0.314 µM) | > 10 | – | – | – | –
Nc1cccc(NC(=S)Nc2ccc(NC(=O)c3csnn3)cc2)c1 [Example 918, [1,2,3]Thiadiazole-4-carboxylic acid {4-[3-(3-amino-phenyl)-thioureido]-phenyl}-amide] | > 10 | – | 0.03 (≈ 0.081 µM) | > 10 | – | – | – | –
CC(NC(=S)Nc1ccc(NC(=O)c2csnn2)cc1)c1ccccc1 (centres unmarked) [Example 588] | – | – | – | – | 0.36 (≈ 0.939 µM) | 0.03 (≈ 0.0782 µM) | >10 | –
CC(NC(=S)Nc1ccc(NC(=O)c2ccncc2)cc1)c1ccc(F)cc1 (centres unmarked) [Example 759] | – | – | – | – | 2 (≈ 5.07 µM) | >10 | >10 | –
Cc1nc(C(=O)Nc2ccc(NC(=S)Nc3cc(Cl)cc(Cl)c3)cc2)cs1 [Example 1138, 2-Methyl-thiazole-4-carboxylic acid {4-[3-(3,5-dichloro-phenyl)-thioureido]-phenyl}-amide] | > 10 | – | 0.65 (≈ 1.49 µM) | > 10 | – | – | – | –
O=C(Nc1ccc(NC(=S)Nc2ccc(Cl)c(Cl)c2)cc1)c1csc(-c2ccccc2)n1 [Example 1143, 2-Phenyl-thiazole-4-carboxylic acid {4-[3-(3,4-dichloro-phenyl)-thioureido]-phenyl}-amide] | > 10 | – | 7.5 (≈ 15 µM) | > 10 | – | – | – | –
O=C(Nc1ccc(NC(=S)Nc2cc(Cl)ccc2Cl)cc1)c1csnn1 [Example 866, [1,2,3,]Thiadiazole-4-carboxylic acid {4-[3-(2,5-dichloro-phenyl)-thioureido]-phenyl}-amide] | – | – | – | – | >10 | 0.035 (≈ 0.0825 µM) | >10 | 50
CC(N=[N+]=[N-])c1ccc(NC(=S)Nc2ccc(NC(=O)c3ccco3)cc2)cc1Cl (centres unmarked) [Example 486] | – | – | – | – | >10 | 0.045 (≈ 0.102 µM) | >10 | 22
O=C(Nc1ccc(NC(=S)NCc2ccc(Cl)c(Cl)c2)cc1)c1csnn1 [Example 537] | – | – | – | – | 10 (≈ 22.8 µM) | 0.003 (≈ 0.00684 µM) | 9 (≈ 20.5 µM) | –
CN(C)c1cccc(NC(=S)Nc2ccc(NC(=O)c3csnn3)cc2)c1 [Example 479] | – | – | – | – | >10 | 0.1 (≈ 0.251 µM) | >10 | 30
O=C(Nc1ccc(NC(=S)Nc2cc(N3CCOCC3)cc(C(F)(F)F)c2)cc1)c1csnn1 [Example 559] | – | – | – | – | >10 | 0.012 (≈ 0.0236 µM) | >10 | –
O=C(Nc1ccc(NC(=S)Nc2cccc(C(F)(F)F)c2)cc1)c1csnn1 [Example 457] | – | – | – | – | >10 | 0.019 (≈ 0.0449 µM) | >10 | 26
O=C(Nc1ccc(NC(=S)Nc2cccc(OC(F)(F)F)c2)cc1)c1ccccc1F [Example 1011, 2-Fluoro-N-{4-[3-(3-trifluoromethoxy-phenyl)-thioureido]-phenyl} -benzamide] | – | 20 | 0.039 (≈ 0.0868 µM) | > 10 | – | – | – | –
CN(C)c1ccc(CNC(=S)Nc2ccc(NC(=O)c3csnn3)cc2)cc1C(F)(F)F [Example 602] | – | – | – | – | >10 | 0.0015 (≈ 0.00312 µM) | >10 | –
CC(C)CN(C)c1cc(NC(=S)Nc2ccc(NC(=O)c3csnn3)cc2)cc(C(F)(F)F)c1 [Example 594] | – | – | – | – | >10 | 0.011 (≈ 0.0216 µM) | >10 | –
O=C(Nc1ccc(NC(=S)Nc2cc(Cl)cc(Cl)c2)cc1)c1csc(-c2ccccc2)n1 [Example 1142, 2-Phenyl-thiazole-4-carboxylic acid {4-[3-(3,5-dichloro-phenyl)-thioureido]-phenyl}-amide] | > 10 | – | 1.8 (≈ 3.6 µM) | > 10 | – | – | – | –
COc1cc(C)c(Cl)cc1NC(=S)Nc1ccc(NC(=O)c2csnn2)cc1 [Example 907, [1,2,3]Thiadiazole-4-carboxylic acid {4-[3-(5-chloro-2-methoxy-4-methyl-phenyl)-thioureido]-phenyl}-amide] | > 10 | 36 | 0.009 (≈ 0.0207 µM) | > 10 | – | – | – | –
O=C(Nc1ccc(NC(=S)Nc2cccc(Cl)c2)cc1)c1csnn1 [Example 992, [1,2,3]Thiadiazole-4-carboxylic acid {4-[3-(3-chloro-phenyl)-thioureido]-phenyl}-amide] | > 10 | 29 | 0.018 (≈ 0.0462 µM) | > 10 | – | – | – | –
CC(C)Cc1cc(NC(=S)Nc2ccc(NC(=O)c3csnn3)cc2)cc(C(F)(F)F)c1 [Example 557] | – | – | – | – | >10 | 0.006 (≈ 0.0125 µM) | >10 | –
COc1cc(OC)c(NC(=S)Nc2ccc(NC(=O)c3ccc(Cl)o3)cc2)cc1Cl [Example 163] | – | – | – | – | >10 | 7 (≈ 15 µM) | 3 (≈ 6.43 µM) | 30
O=C(Nc1ccc(NC(=S)Nc2ccc(Br)c(Cl)c2)cc1)c1ccccc1F [Example 965, N-{4-[3-(4-Bromo-3-chloro-phenyl)-thioureido]-phenyl} -2-fluoro-benzamide] | – | 36 | 0.008 (≈ 0.0167 µM) | > 10 | – | – | – | –
CC(NC(=S)Nc1ccc(NC(=O)c2ccco2)cc1)c1ccc(F)cc1 (centres unmarked) [Example 592] | – | – | – | – | 2 (≈ 5.22 µM) | 0.049 (≈ 0.128 µM) | >10 | –
CC(O)c1cccc(NC(=S)Nc2ccc(NC(=O)c3ccco3)cc2)c1 (centres unmarked) [Example 472] | – | – | – | – | >10 | 0.8 (≈ 2.1 µM) | >10 | 31
O=C(Nc1ccc(NC(=S)Nc2ccc(Cl)c(C(F)(F)F)c2)cc1)c1csnn1 [Example 200] | – | – | – | – | >15 | 0.02 (≈ 0.0437 µM) | >10 | 55
Nc1ccc(CCNC(=S)Nc2ccc(NC(=O)c3ccco3)cc2)cc1 [Example 603] | – | – | – | – | >10 | >0.5 | >10 | –
O=C(Nc1ccc(NC(=S)Nc2ccc(I)c(Cl)c2)cc1)c1ccccc1F [Example 966, N-{4-[3-(3-Chloro-4-iodo-phenyl)-thioureido]-phenyl} -2-fluoro-benzamide] | – | 42 | 0.02 (≈ 0.038 µM) | > 10 | – | – | – | –
O=C(CN1CCCCC1)Nc1ccc(NC(=S)Nc2ccc(NC(=O)c3csnn3)cc2)cc1Cl [Example 391] | – | – | – | – | 6 (≈ 11.3 µM) | 0.019 (≈ 0.0358 µM) | 8 (≈ 15.1 µM) | 97
CCCCN(C)c1cc(NC(=S)Nc2ccc(NC(=O)c3csnn3)cc2)cc(C(F)(F)F)c1 [Example 597] | – | – | – | – | >10 | 0.008 (≈ 0.0157 µM) | >10 | –

— patent publication US6426355B1, “Heterocyclic carboxamide-containing thiourea inhibitors of herpes viruses containing phenylenediamine group” (American Home Products, priority 1998, dated 2002)
